The text below walks through data of PMC11388068, “Amide naphthotube as a novel supramolecular sequestration agent for tetracaine and decamethonium” (Theranostics, 2024).

The nature of series [1]: Lethal C10 poisoning mouse model (Dixon's up-and-down, probit). The class given is in vivo. Particulars: Balb/c, mouse, in vivo, iv; C10 i.v., mice, probit analysis. The method, then:
(§1) Lethal C10 poisoning mouse model: the lethal dose of i.v. administered C10 was calculated using Dixon's up-and-down method similar to TC. The initial dose of C10 was 0.9 mg/kg. Subsequent doses for each mouse were adjusted by ±0.1 mg/kg based on the outcome of the preceding animal.

For the next series, the system named is mice. The series is described as above. The class given is in vivo. Particulars: C10 i.v., probit analysis. The method, then: as §1
The test system of series [2] is Balb/c mice. In words: C10-induced paralysis dose in a mouse model (Rotarod). It counts as in vivo, Female Balb/c mice. The note with it: C10 i.v., probit analysis. The method, then:
Determination of C10-induced paralysis dose in a mouse model: The movement behavior was conducted with the Rotarod rotor (ZB-200). Female Balb/c mice (8-9 weeks old) weighing 18-22 g were placed on the Rotarod rotor and trained three times for 30 minutes, three times a day for three consecutive days. On day 4, Dixon's up-and-down method was employed to explore the effective dose: The initial dose of C10 to the first mouse was 0.6 mg/kg, and the standard dose ratio of C10 given to the adjacent mouse was 0.8. […] Conversely, in the case of a negative response, the following mouse received an increased dose. Tests were conducted sequentially, with changes in mobility response transitioning between positive and negative until at least 7 crossover points were reached. Probit analysis was employed to determine the ED50 (50% effective dose) and ED95 (95% effective dose) of C10, along with their corresponding CI (confidence intervals). Sequence diagrams and dose-response curves were generated using GraphPad Prism 9 software.
(In the rotarod test animals must keep their balance on a rotating rod.)

Another series relates to C10-induced paralysis. In words: Mobility recovery assessment in a mouse model (Rotarod). It counts as in vivo, Female Balb/c mice. The note with it: mice given C10 0.53 mg/kg, no 1b. The method, then:
Mobility recovery assessment in a mouse model: the trained mice for 4 days were i.v. administered with either 4 mg/kg or 6 mg/kg of 1b, or saline, 30 seconds after administering 0.53 mg/kg C10. The mice were then placed on the rotor, and the time taken to move on the rotor for 30 seconds successfully was recorded.

Series [3] can be described thus: Plasma pharmacokinetics of C10, saline- and 1b-treated groups. It counts as in vivo, Male Kunming mice. Particulars: for AUC(0-inf) / AUC(0-t) / Cmax / MRT last / MRT inf / half-life / Vd: plasma; for MRT last: read-out: MRT0-t; for MRT inf: read-out: MRT0-∞; for half-life: read-out: T1/2z (converted); for Vd: read-out: Vz. The method, then: Male Kunming mice (30 ± 2 g) were used in the pharmacokinetic study. Drugs were injected through the tail vein of mice. Blood, liver, and kidney tissues were collected at certain intervals after administration with 6 mice at each time point. Blood samples were placed in heparin sodium tubes and centrifuged at 6000 rpm for 20 minutes at 4^ oC to obtain plasma samples. Plasma, liver and kidney tissues were stored in a freezer at -80 °C and frozen until analysis was performed. The drug concentrations were determined by Liquid chromatography-mass spectrometry (Waters ACQUITY UPLC/Xevo TQ-S). The Masslynx 4.1 software was used to obtain the peak area of the tested compounds and internal standards in each plasma sample and calculate the standard curve formula. […] The detailed pharmacokinetics experiment procedure including materials and reagents, sample preparation, establishment and validation of analytical strategy, and LC-MS conditions are described in the Supporting Information.
1.3. A dministration and collection of plasma samples
Male Kunming mice (30±2g) were randomly divided into 5 groups, namely 1b group (dose 80mg/kg, concentration 20mg/ml), C10 group (dose 0.45mg/kg, concentration 0.125mg/ml, C10 injection for 30s followed by the same volume of normal saline), 1b combined with C10 group (C10 dose 0.45 mg/kg, C10 concentration 0.125mg/ml, C10 injection for 30s followed by 1b 6 mg/kg, 1b concentration 1.5 mg/ml). Drugs were injected through the tail vein of mice. In group 1b , eyeball blood and liver and […]
after administration, with 6 mice in each time point. In the other four groups, blood and liver and kidney tissues were collected from eyeballs at 3min, 5min, 10min, 15min, 30min, 45min and 1h after administration. Six mice were selected at each time point. Blood samples were placed in heparin sodium tubes and centrifuged at 6000rpm for 20 minutes at 4℃ to obtain plasma samples. They were stored in a refrigerator at - 80 ° C and frozen until analysis. Plasma, liver and kidney tissues were stored in a freezer at - 80 ℃ and then frozen until analysis was performed.
1.4. Preparation of Calibration Standards and Quality Control (QC) Samples 1b, C10, and IS were dissolved separately in methanol to get a stock solution concentration of 1.0 mg/mL. The stock solution of the drug to be tested was then diluted with methanol to prepare the working solution. Calibration standards and QC samples were prepared by diluting the working solution with methanol. The final concentrations of C10 were 25, 250 and 1000 ng/mL, 1b final concentration of 150, 1500 and 6000 ng/mL.The final concentration of IS is 10 ng/mL.
1.5.Mouse plasma sample preparation
The plasma to be tested was thawed at room temperature, and 100 μL of mouse plasma samples were collected in 1.5 mL EP tubes. 10 μL of IS solution (10 ng/mL) and 10 μL of methanol were mixed followed by the addition of 400 μL […] (1:1 v / v), and then the tubes were vortex mixed for 3.0 min.
After centrifugation at 13,000 rpm for 20 min at 4 °C, the supernatant was transferred to a nitrogen blower, and the solvent was dried by maintaining a steady flow of nitrogen. After drying the solvent, reconstituted with 100 μL 20% aqueous methanol

A further series has as its system Human myocytes AC16 cell. In words: CCK-8 cytotoxicity assay in AC16 cells. The note with it: 24 h, 24 h incubation, mixtures in a 1:1 ratio. It counts as cell-based. The method, then: Cells experiments: AC16 cells were cultured in DMEM/F12 with 10% FBS, 1% penicillin, and 1% streptomycin at 37 °C with 5% CO2, and passaged every 2 days. They were seeded into 96-well plates at a density of 5-8×10^3 cells per well and cultured overnight. Then, different concentrations of TC, 1a, 1b, TC@1a and TC@1b mixture solution at various concentrations (25, 50, […], […], 200, 400, 800, and 1600 μM) were added to replace the culture medium for 24 h at 37 °C. After incubation, Cell Counting Kit-8 solution (10 μL per well) was added, and cells were incubated for 4 h at 37 °C. The optical density values at 450 nm were measured using a microplate reader to assess cell viability as a percentage of control cells. Finally, IC50 values were calculated using GraphPad Prism 8.0.2 software.
The assay and cell viability were calculated as in the cell experiment above.

Series [4] in a line: Lethal TC poisoning mouse model (Dixon's up-and-down, probit). The class given is in vivo, female Balb/c mice. The note with it: female, Balb/c, mouse, in vivo, iv, TC i.v., mice, probit analysis. The method, then: (§2) Lethal TC poisoning mouse model: the lethal dose of i.v. administered TC was calculated in mice (8-10 week old female Balb/c mice, weighing 20-25 g) using Dixon's up-and-down method. The initial dose of TC given to the first mouse was 9.0 mg/kg, and the standard dose ratio of TC given to the adjacent mouse was 0.9. If the animal survives, the subsequent animal receives a higher dose. If the animal dies, the following animal receives a lower dose. This process was repeated until at least seven crossover points were achieved. Probit analysis was employed to determine the LD50 (50% lethal dose) and LD95 (95% lethal dose) of TC, along with their corresponding CI (confidence intervals). Sequence diagrams and dose-response curves were generated using GraphPad Prism 9 software.

In series [5] the test system is Balb/c mice. The description is as above. It counts as in vivo, female Balb/c mice. Particulars: TC i.v., probit analysis. The method, then:
as §2

The subject of series [6] is AC16 cells. The series can be described thus: Plasma membrane potential, DiBAC4(3) flow cytometry. The class given is cell-based, Human. Particulars: AC16 cells exposed to TC for 10 minutes. The method, then: Determination of the plasma membrane potential: AC16 cells were seeded into 12-well plates and cultured until reaching 80-90% confluence. Following removal of the culture medium, cells were exposed to HBSS (Hank's Balanced Salt Solution) containing […] TC for 10 minutes at 37 °C. Subsequently, cells were collected and incubated with 200 nM Bis-(1,3-Dibutylbarbituric Acid)-Trimethine Oxanol (DiBAC4(3), Solarbio) for 20 minutes at 37 °C. The fluorescence intensity of cells was then assessed using flow cytometry. To determine the impact of 1b (ammonium salt) on plasma membrane potential, 25×10^4 AC16 cells were co-incubated with 400 µM TC and varying concentrations of 1b (0, 400, 800, and 2000 µM) or exclusively with 1b (2000 µM) in HBSS for 10 minutes at 37 °C. Plasma membrane potential was subsequently evaluated using the aforementioned methodology.
A general note: A flow cytometer gives signals particle by particle.

Series [7] relates to AC16 cells. The series can be described thus: Intracellular sodium levels. It counts as cell-based, Human. Particulars: TC 400 µM, 10 minutes. The method, then: Determination of intracellular sodium levels: 3×10^5 AC16 cells were seeded in 6-well plates with 2 mL of medium. After 12 hours, the cell medium was replaced with 400 µM TC and varying concentrations of compound 1b (ammonium salt, 0, 400, 800, and 2000 µM) or 2000 µM 1b in HBSS for 10 minutes at 37 °C. Control cells were treated with 2 mL HBSS for 10 minutes at 37 °C. After washing with PBS, cells were lysed in 300 µL of 1% Triton X-100 in saline with a 1% proteinase inhibitor cocktail from Meilunbio. The lysates were centrifuged at 12,000 ×g for 15 minutes, and the supernatant was collected for sodium level determination (7600 Modular-Hitachi-Chemistry Analyzer) and total protein content BCA assays (Epizyme Biotech). The sodium-to-protein ratio was calculated, presenting results as relative intracellular sodium content compared to the control group.

The mark [8] stands for this setting: male, Kunming, mouse, iv, 0.45 mg/kg, C10 in plasma, Saline-treated Group.
The mark [9] stands for this setting: male, Kunming, mouse, iv, 0.45 mg/kg, C10 in plasma, 1b-treated Group.

Where “and” joins values, the source holds several entries; their conditions need not be identical. Identical values can stand only once. Like-named read-outs stand apart in the source and are kept apart here.

Usually LD50 stands for the dose at which mortality reaches 50%. Broadly, the ED50 is the dose at which the effect has come halfway, by size or by number of responders. What is called Tmax is the time from dosing to the highest level. In general, AUC(0-t) refers to exposure summed from dosing to a finite time, without extrapolation to infinity. A word on the Cmax: it is the peak of the concentration-time curve. In turn, `C[N+](C)(C)CCCCCCCCCC[N+](C)(C)C` [C10, Decamethonium] showed an LD50 in [1] of 0.69 mg/kg. In the series with mice, this compound registered an LD95 of 0.86 mg/kg. Also, the “ED95 for inducing muscle paralysis” value in the series on Balb/c mice [2] is on record as 0.53 mg/kg. Besides, the ED50 with Balb/c mice [2] (Mus musculus, iv, read-out: ED50 for inducing muscle paralysis) stood at 0.37 mg/kg. In the series with C10-induced paralysis, the average recovery time result is reported as “approximately 402.8 seconds”. The CL in [3] (C10 in plasma, 1b-treated Group) amounted to 1.12 ± 0.22 mL/h/g. Further, the CL in series [3] (C10 in plasma, Saline-treated Group) stood at 1.54 ± 0.16 mL/h/g. In addition, in series [3] (setting [8]), the Tmax was found to be 3 min, the AUC(0-t) came to 284 ± 26.4 ng·h/mL, the Cmax was 1310 ± 179 ng/mL and the MRT last is 6.6 ± 1.2 min. In series [3] (setting [8]), the MRT inf amounted to 9.6 ± 2.4 min, the half-life is 21.6 ± 9.6 min and the Vd is 0.8 ± 0.33 L/kg. The AUC(0-inf) in series [3] (male, Kunming, mouse, iv, 0.45 mg/kg, C10, 1b-treated Group, read-out: area under the plasma concentration-time curve (AUC0-∞)) came to 414 ± 80.9 ng·h/mL. In addition, the AUC(0-inf) in series [3] (male, Kunming, mouse, iv, 0.45 mg/kg, C10, saline-treated Group, read-out: area under the plasma concentration-time curve (AUC0-∞)) came out at 294 ± 28 ng·h/mL. In series [3] (setting [9]), the AUC(0-t) turned out to be 406 ± 77.2 ng·h/mL, the Cmax stood at 1630 ± 345 ng/mL, the MRT last was determined as 9 ± 1.2 min and the MRT inf is 10.2 ± 1.8 min. Also, in series [3] (setting [9]), the half-life was 11.4 ± 1.2 min and the Vd worked out at 0.3 ± 0.06 L/kg. In addition, the AUC(0-inf) in [3] (male, Kunming, mouse, iv, 0.45 mg/kg, C10 in plasma, 1b-treated Group, read-out: AUC0-∞) amounted to 414 ± 80.9 ng·h/mL. Moreover, in series [3] (male, Kunming, mouse, iv, 0.45 mg/kg, C10 in plasma, Saline-treated Group, read-out: AUC0-∞), the AUC(0-inf) stood at 294 ± 28 ng·h/mL.
The term IC50 denotes the concentration needed to halve the response being measured. As to `CCCCNc1ccc(C(=O)OCCN(C)C)cc1` [TC, Tetracaine], in the series with Human myocytes AC16 cell, the IC50 was 384 µM. This compound returned an LD50 in series [4] of 6.92 mg/kg. Besides, in the series with Balb/c mice [5], the LD50 was found to be 6.9 mg/kg; the LD95 was 8.749 mg/kg and 8.7 mg/kg. Further, in the series with AC16 cells [6], the “mean fluorescence intensity (plasma membrane potential)” value is “significant rise in mean fluorescence intensity”. Moreover, in the series with AC16 cells [7], the intracellular sodium loss entry is “approximately 20%”.
